# Laboratory results: patent publication US8569339B2, “Soluble guanylate cyclase activators” (Boehringer Ingelheim International GmbH, priority 2011, dated 2013)
# Values joined by “and” are separate entries in the source; they are usually repeats but may differ in a detail not shown here. Identical values can stand only once.
# Key:
# [1] = target: T1, Recombinant human soluble guanylate cyclase (sGC) (Homo sapiens, UniProt Q02153); test: Molecular assay: activation of heme-free sGC, cGMP detection (CisBio kit); assay type: biochemical; conditions: 300 pM heme-free sGC, 37° C., 60 minutes, cGMP formation
# T1 construct: histidine tag (C); made in house; host or cells: Sf9 insect cells (baculovirus coinfection)
# Experimental: The compounds of the invention may be evaluated in the following molecular assay:
# Recombinant human soluble guanylate cyclase (sGC) is purified from Sf9 insect cells coinfected with baculoviruses expressing the alpha 1 or beta 1 subunit of sGC, both with a C-terminal histidine tag. Heme-free sGC is prepared by treating cell lysate with a final concentration of 0.5% Tween 20 prior to purification on a nickel affinity column.
# sGC catalyzes the conversion of guanosine-5′-triphosphate (GTP) to cyclic guanosine monophosphate (cGMP). The activity of sGC is measured in vitro using the commercially available CisBio cGMP detection kit (catalog #62GM2PEB) in a 384 well format. In brief, 300 pM heme-free sGC is incubated in reaction buffer (50 mM MOPS pH 6.8, 0.2 N KOH, 50 mM NaCl, 2 mM MgCl2, 0.1% BSA, 1.25 mM IBMX, 0.25 mM TCEP, 50 nM GTP) in the presence or absence of dilutions of test compounds diluted in DMSO (final concentration of 1%) in a volume of 10 microL at 37° C. for 60 minutes. Undiluted reaction products or an 80-fold dilution of reaction products (10 microL of either) prepared in reaction buffer containing 0.2 mM TCEP and 10 mM EDTA is mixed with 5 microL of d2-cGMP plus 5 microL of Eu^3+cryptate-labeled anti-cGMP, each diluted in buffer containing 0.1 M KPO4 pH 7.5, 0.4 M KF, 20 mM EDTA, 0.2% BSA. After a one hour incubation at room temperature in the dark, the mixtures are quantified on an EnVision plate reader (PerkinElmer) according to manufacturer instructions (laser excitation 337 nm, emission 620 and 665 nm). The ratio at each compound concentration is converted to nM cGMP using the linear portion of a calibration curve. Log compound concentration is plotted against combined undiluted and diluted nM cGMP values to determine the EC50 for each curve.
# Representative compounds of the present invention were tested for activity in the above assay. Preferred compounds have an IC50<5,000 nM and more preferred compounds have an IC50<100 nM in this assay.
# [2] = Assessment of solubility (HT solubility, pION, UV); assay type: physicochemical; conditions: incubated 16-19 hours, 1.0% DMSO, 100 uM; for solubility kinetic: pH 4.5 buffer (pION system solution), pH 4.5, aqueous buffer, kinetic from dmso stock, read-out: Sol pH 4.5; for Sol pH 7.4: pH 7.4 buffer
# Experimental: Solubility is measured by the following method.
# DMSO stock samples at 10 mM conc are prepared. […] The samples are pierced and 100 ul of thawed samples are transferred into the PCR plate for analysis. Each sample is run in duplicate at each pH (pH 4.5 and 7.4). Up to 95 samples can be run in replicate at 2 pH's+1 DMSO (blank).
# 2. Preparation of pH 4.5 and 7.4 buffers:
# pH 4.5 buffer: To 12.5 of system solution (pION) qs to 500 mL of distilled water (pH 2.85-2.90); adjust the pH to pH 4.5 with 0.5 N NaOH.
# pH 7.4 buffer: To 12.5 of system solution (pION) qs to 500 mL of distilled water (pH 2.85-2.90); adjust the pH to pH 7.4 with 0.5N NaOH.
# Preparation of UV blank plate:
# 75 ul of buffer (pH 7.4 or pH 4.5) is added to UV plate followed by addition of […] of N-propanol. The solution is mixed and the blank spectrum is read using spectrophotometer.
# Preparation of Reference UV plate:
# 10 ul of each stock sample (including DMSO control) is added to 190 ul of N-propanol to prepare the reference stock plate. Reference stock samples are mixed and 5 ul of each stock sample is added to UV blank plate after it is read spectrophotometrically. The reference stock sample is mixed with blank solution in UV plate and the reference spectrum is read using UV spectrophotometer.
# Preparation of sample for incubation:
# Solubility at pH 7.4: 6 ul of each stock sample (including DMSO control) is added to the storage plate containing 600 ul of pH 7.4 buffer, mixed and incubated for 16-19 hours. The plate is sealed well during the incubation process. The DMSO content in the sample is 1.0%. The concn in deep well plates is 100 uM
# 6 ul of each stock sample (including DMSO control) is added to the deep well plate containing 600 ul of pH 4.5 buffer, mixed and incubated for 16-19 hours. The plate is sealed well during the incubation process. The DMSO content in the sample is 1.0%. The concn in deep well plates is 100 uM
# Preparation of sample UV plate:
# At the end of the incubation period, 100 uL of sample from the storage plate is vacuum filtered using a filter plate. This step wets the filters and the filtrate is discarded. Another 200 ul of the sample from the deep well plate is vacuum filtered using the same filter block but a clean filter plate. 75 ul of the filtrate from the filter plate is transferred to a UV sample plate. 75 ul of N-propanol is added to this UV plate. The solution is mixed and the spectrum is read using the UV spectrophotometer.
# The spectra collected for blank, reference and sample from 250-498 nm is analyzed using pION software. If the sample precipitates out, the solubility is reported as XX μg/ml. If there is no precipitation and the sample is soluble, solubility is reported as […] (YY being the initial concentration of the compound in the sample).
# T1 sequence (Q02108 whole entry partner): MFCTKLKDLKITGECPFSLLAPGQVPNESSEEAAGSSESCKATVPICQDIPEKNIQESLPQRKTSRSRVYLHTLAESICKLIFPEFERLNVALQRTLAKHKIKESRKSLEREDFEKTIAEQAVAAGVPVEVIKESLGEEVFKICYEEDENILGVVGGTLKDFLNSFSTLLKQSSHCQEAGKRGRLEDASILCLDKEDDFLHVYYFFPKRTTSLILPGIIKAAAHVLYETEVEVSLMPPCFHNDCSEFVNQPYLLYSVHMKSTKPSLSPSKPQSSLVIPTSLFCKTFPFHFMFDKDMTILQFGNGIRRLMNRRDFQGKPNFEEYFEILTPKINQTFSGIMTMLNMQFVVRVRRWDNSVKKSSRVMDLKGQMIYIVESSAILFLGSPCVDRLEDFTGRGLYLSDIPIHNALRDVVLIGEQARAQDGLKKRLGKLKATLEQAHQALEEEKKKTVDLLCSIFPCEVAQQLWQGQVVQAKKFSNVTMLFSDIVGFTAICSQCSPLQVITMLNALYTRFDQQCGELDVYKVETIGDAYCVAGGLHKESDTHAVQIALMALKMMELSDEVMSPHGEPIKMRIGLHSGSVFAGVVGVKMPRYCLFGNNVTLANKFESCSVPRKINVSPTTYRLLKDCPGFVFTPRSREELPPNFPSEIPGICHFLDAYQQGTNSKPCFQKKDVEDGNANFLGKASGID
# T1 sequence (Q02153 whole entry): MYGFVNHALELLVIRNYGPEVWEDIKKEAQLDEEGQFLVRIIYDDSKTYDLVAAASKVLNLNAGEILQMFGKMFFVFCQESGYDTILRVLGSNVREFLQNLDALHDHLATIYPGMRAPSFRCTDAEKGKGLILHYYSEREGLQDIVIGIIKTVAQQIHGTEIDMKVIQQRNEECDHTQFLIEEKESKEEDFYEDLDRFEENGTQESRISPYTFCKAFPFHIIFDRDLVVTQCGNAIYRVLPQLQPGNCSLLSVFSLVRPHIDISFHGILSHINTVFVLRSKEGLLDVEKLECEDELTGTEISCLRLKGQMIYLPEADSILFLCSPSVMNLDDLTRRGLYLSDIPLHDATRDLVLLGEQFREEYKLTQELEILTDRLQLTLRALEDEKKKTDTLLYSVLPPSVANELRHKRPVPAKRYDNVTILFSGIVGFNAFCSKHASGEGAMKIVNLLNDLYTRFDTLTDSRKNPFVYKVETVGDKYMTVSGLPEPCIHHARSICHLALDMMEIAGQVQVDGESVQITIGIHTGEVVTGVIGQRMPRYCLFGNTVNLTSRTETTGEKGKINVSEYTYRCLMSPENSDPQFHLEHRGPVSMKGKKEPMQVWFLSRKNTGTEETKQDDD
EC50 [1] [nM],solubility kinetic ([2]; pH 4.5 buffer) [µg/mL],Sol pH 7.4 [2],Sol pH 4.5 ([2]; pH 4.5 buffer) [μg/mL],Compound
67,0.4,>54 μg/mL,–,"Cc1ccc(OCc2ccc3c(c2)CCN3S(C)(=O)=O)c(-c2cccc(-n3ncc(C(=O)O)c3C(F)(F)F)n2)c1 [Compound 9, 1-{6-[2-(1-methanesulfonyl-2,3-dihydro-1H-indol-5-ylmethyoxy)-5-methylphenyl]pyridin-2-yl}-5-trifluoromethyl-1H-pyrazole-4-carboxylic acid]"
6,18.2,25.6 μg/mL,–,Cc1ccc(OCc2ccc3c(c2)CCN(Cc2ccccc2)C3)c(-c2cccc(-n3ncc(C(=O)O)c3C(F)(F)F)n2)c1 [Compound 27]
4540,> 58,11.8 μg/mL,–,Cc1ccc(OCc2ccc3c(c2)CCN(C)C3)c(-c2cccc(-c3ncc(C(=O)O)n3C)n2)c1 [Compound 41]
14,> 78,54.2 μg/mL,–,"CCn1c(C(=O)O)cnc1-c1cccc(-c2cccc(C)c2OCc2ccc3c(c2)CCN(C2CCOCC2)C3)n1 [Compound 63, 3-ethyl-2-[6-[3-methyl-2-[(2-tetrahydropyran-4-yl-3,4-dihydro-1H-isoquinolin-6-yl)methoxy]phenyl]-2-pyridyl]imidazole-4-carboxylic acid]"
2,> 58,>58 μg/mL,–,Cc1ccc(OCc2ccc3c(c2)CCN(C2CCCCC2)C3)c(-c2cccc(-n3ncc(C(=O)O)c3C(F)(F)F)n2)c1 [Compound 19]
155,> 81,>81 μg/mL,–,Cc1ccc(OCc2ccc3c(c2C)CCN(C2CCOCC2)C3)c(-c2cccc(-c3c(C)c(C(=O)O)nn3C)n2)c1 [Compound 80]
33,0.1,>58 μg/mL,–,Cc1ccc(OCc2ccc3c(c2)CCN(S(C)(=O)=O)C3)c(-c2cccc(-n3ncc(C(=O)O)c3C(F)(F)F)n2)c1 [Compound 5]
185,48.4,31.7 μg/mL,–,Cc1cccc(-c2cccc(-c3c(C)c(C(=O)O)nn3C)n2)c1OCc1ccc2c(c1)CCN(C1CCOCC1)C2 [Compound 81]
180,17.3,14.1 μg/mL,–,Cc1cccc(-c2cccc(-c3c(C)c(C(=O)O)nn3CC(F)(F)F)n2)c1OCc1ccc2c(c1)CCN(C1CCOCC1)C2 [Compound 87]
1700,15.4,19.6 μg/mL,–,"Cc1ccc(OCc2ccc3c(c2)CCN(C)C3)c(-c2cccc(-n3ncc(C(=O)O)c3C)n2)c1 [Compound 43, 5-methyl-1-{6-[5-methyl-2-(2-methyl-1,2,3,4-tetrahydro-isoquinolin-6-ylmethoxy)phenyl]pyridin-2-yl}-1H-pyrazole-4-carboxylic acid]"
6,6.3,4.6 μg/mL,–,Cc1ccc(OCc2ccc3c(c2)CCN(C2CCC(C(F)(F)F)CC2)C3)c(-c2cccc(-n3ncc(C(=O)O)c3C(F)(F)F)n2)c1 (stereo not drawn) [Compound 33]
27,0.8,>65 μg/mL,–,"Cc1ccc(OCc2ccc3c(c2)CCN(S(=O)(=O)CCCC(=O)O)C3)c(-c2cccc(-n3ncc(C(=O)O)c3C(F)(F)F)n2)c1 [Compound 3, 1-(6-{2-[2-(3-carboxypropane-1-sulfonyl)-1,2,3,4-tetrahydroisoquinolin-6-ylmethoxy]-5-methylphenyl}pyridin-2-yl)-5-trifluoromethyl-1H-pyrazole-4-carboxylic acid]"
175,> 65,>65 μg/mL,–,Cc1cccc(-c2cccc(-c3ncc(C(=O)O)n3C)n2)c1OCc1ccc2c(c1)CCN(C1CCCOC1)C2 (stereo not drawn) [Compound 75]
3,> 60,>60 μg/mL,–,Cc1ccc(OCc2ccc3c(c2)CCN(CC2CCCOC2)C3)c(-c2cccc(-n3ncc(C(=O)O)c3C(F)(F)F)n2)c1 (stereo not drawn) [Compound 26]
2000,0.1,5.7 μg/mL,–,"Cc1ccc(OCc2ccc3c(c2)CCN(C)C3)c(-c2cccc(-c3csc(C(=O)O)c3C)n2)c1 [Compound 46, 3-methyl-4-{6-[5-methyl-2-(2-methyl1,2,3,4-tetrahydroisoquinolin-6-ylmethoxy)phenyl]pyridin-2-yl}thiophene-2-carboxylic acid]"
75,> 110,>110 μg/mL,–,Cn1c(C(=O)O)cnc1-c1cccc(-c2cccc(C(F)(F)F)c2OCc2ccc3c(c2)CCN(C2CCOCC2)C3)n1 [Compound 61]
575,17.6,21.7 μg/mL,–,"Cc1ccc(OCc2ccc3c(c2)CCNC3)c(-c2cccc(-n3ncc(C(=O)O)c3C(F)(F)F)n2)c1 [Compound 4, 1-{6-[5-Methyl-2-(1,2,3,4-tetrahydroisoquinolin-6-ylmethoxy)phenyl]pyridin-2-yl}-5-trifluoromethyl-1H-pyrazole-4-carboxylic acid]"
47,> 67,>67 μg/mL and >66 μg/mL,>66,Cc1cccc(-c2cccc(-c3ncc(C(=O)O)n3C)n2)c1OCc1ccc2c(c1)CCN(CC1CCCOC1)C2 (stereo not drawn) [Compound 73]
1830,> 53,>53 μg/mL,–,Cc1ccc(OCc2ccc3c(c2)CCN(C2CCOCC2)C3)c(-c2cccc(-c3ncc(C(=O)O)n3C)n2)c1 [Compound 66]
69,> 70,>70 μg/mL,–,Cc1cccc(-c2cccc(-c3c(C)c(C(=O)O)nn3C(C)(C)C)n2)c1OCc1ccc2c(c1)CCN(C1CCOCC1)C2 [Compound 84]
210,> 67,>67 μg/mL,–,CCn1nc(C(=O)O)c(C)c1-c1cccc(-c2cccc(C)c2OCc2ccc3c(c2)CCN(C2CCOCC2)C3)n1 [Compound 82]
8,–,–,–,Cc1csc(CN2CCc3cc(COc4c(C)cccc4-c4cccc(-c5ncc(C(=O)O)n5C)n4)ccc3C2)n1 [Compound 69]
180,–,–,–,Cc1cccc(-c2cccc(-c3ncc(C(=O)O)n3C)n2)c1OCc1ccc2c(c1)CCN(CC1CCOCC1)C2 [Compound 68]
